For one data set, the system named is B16 murine melanoma. As to the kind of experiment: Tissue distribution in C57 BL6 mice bearing B16. The note with it: for elimination kinetics: compared with derivative A; for marker of the B16 murine melanoma: mouse, in vivo. It counts as in vivo, mouse. How it is done: The study of the tissue distribution of the ^125 I labelled compounds was performed in mice bearing grafted melanomas (cf. autoradiograms above). […] The animals are sacrificed at different time intervals of 1 to 24 hours after the injection. The blood is collected and the principal organs are excised. Aliquots are weighed and the radioactivity of the samples is measured in a […] 1191 counter (analytic tracer). The counting yield for iodine 125 is 60%. The results are expressed: as a percentage of the injected dose bound per g of tissue (% ID/g); in the form of the ratios [formula] This ratio reflects more precisely the selectivity of a molecule for an organ (tables 2, 4, 6, 8, 10 and 12).

For another data set, the system named is melanoma in man. The note with it: in vivo; cited from earlier work.
The test system of the next data set is melanoma. The note with it: in vivo; cited from earlier work.
The test system of the next data set is grafted tumors. The note with it: animals bearing grafted tumors; cited from earlier work.

Structures are written as SMILES.

Regarding `CN(C)CCNC(=O)c1ccc(I)cc1` [Derivative E], the “possibility for use in scanning” value in the data set with B16 murine melanoma (between 3 h and 6 h after administration) was “possibilities for use in scanning between 3 h and 6 h”. In addition, in the data set on B16 murine melanoma, the elimination kinetics result is given as “more rapid elimination” and the “marker of the B16 murine melanoma” value was “markers of the B16 murine melanoma”. `CC(C)N(CCNC(=O)c1ccc(I)cc1)C(C)C` [Derivative G]: the “marker of the B16 murine melanoma” value with B16 murine melanoma is “markers of the B16 murine melanoma”. For `CN(C)CCCNC(=O)c1ccc(I)cc1` [Derivative J], in the data set on B16 murine melanoma, the elimination kinetics result is recorded as “more rapid elimination” and the “marker of the B16 murine melanoma” value was “markers of the B16 murine melanoma”.

With `CCN(CC)CCCNC(=O)c1ccc(I)cc1` [Derivative L], in the data set on B16 murine melanoma, the elimination kinetics entry is listed as “more rapid elimination” and the “marker of the B16 murine melanoma” value is reported as “markers of the B16 murine melanoma”. Regarding `CC(C)NC(C)Cc1ccc([123I])cc1` (stereo not drawn) [^123 I-IMP], the “detection of melanoma in man” value in the data set on melanoma in man was “used for the detection of melanoma in man”. Take `O=C([O-])CC(O)(CC(=O)[O-])C(=O)[O-].[67Ga+3]` [citrate of gallium 67]: in the data set on melanoma, the “elimination from the digestive tract” value was “very slow elimination from the digestive tract”; the “localization in the liver and the kidney” value is “late and extensive localization in the liver and the kidney”.

`O=c1[nH]c(=S)[nH]cc1I` [iodothiouracil labelled with ^125 I, iodothiouracil]: the “localization and treatment of malignant melanoma” value in the data set on grafted tumors was “promising agent for the localization and the treatment of malignant melanoma”.

These data come from patent publication US5190741A, “Agents for diagnosing and treating melanomas, aromatic halogenated derivatives usable as such agents and their preparation” (Institut National de la Sante et de la Recherche Medicale …, priority 1989, dated 1993).
